The values that follow come from patent publication US20080214671A1, “Dicarbonic Acid Derivatives, Metastasis Inhibitors and Agents Increasing Chemotherapeutic Activity of Anti-Tumor Preparations, Method for Enhancing the Cytostatic Efficiency and Metastasis Process Inhibiting Method” (priority 2005, published 2008).

Format in all cases: in vivo
One experiment relates to Leukemia P388. Kind of experiment: P388 leukemia in BDF1 mice, combined therapy with cytostatic. The procedure:
(§1) An experimental study of the anti-tumor activity of the FB-13 preparation as a chemosensitizer was carried out on tumor models of P388 leukemia and Lewis metastatic lung carcinoma, which can be seen in Examples 5 and 6.
Leukemia P388 was intraperitoneally inoculated to hybrid mice BDF1. The inoculum was 10^6 leukemic cells in 0.2 ml normal saline. The preparation was administered at a dose 10 mg/kg, cisplatin—at a dose 2 mg/kg on days 1, 3, 5 and 7 post transplantation. The number of cured (surviving for 60 days) animals served as an assessment criterion.
Similar studies were carried out with the preparation FB-14 (50 mg/kg) and cyclophosphane (60 mg/kg).
Furthermore, a significant increase in the average life span (ILS) of the animals as compared to the control group is shown in FIG. 4b.

The subject of another experiment is Lewis lung carcinoma. Nature of the experiment: Lewis lung carcinoma in BDF1 mice, metastasis inhibition in the lungs. On the procedure: as §1
Lewis lung carcinoma was subcutaneously inoculated to hybrid mice BDF1. The inoculum was 5×10^6 tumor cells. The combined effect of FB-13 and cisplatin was investigated. The index of metastasis inhibition (IMI in %) in the lungs served as the assessment criterion. When cisplatin was administered alone, IMI was 50%, in combined administration with FB-13, it was 100% (FIG. 2).

The subject of the next experiment is B-16 melanoma. Kind of experiment: B-16 melanoma in BDF1 mice, metastasis inhibition in the lungs. On the procedure: Experimental B-16 melanoma was subcutaneously engrafted to hybrid mice BDF1. The inoculum was 5×10^6 tumor cells. The combined effect of FB-13 and cisplatin was investigated. The index of metastasis inhibition (IMI in %) in the lungs served as the assessment criterion. When cisplatin was administered alone, IMI was 52%, in combined administration with FB-13, it was 100%. Similar studies were carried out with hydroxamic acids based on oxalic acid (the compound L215) and based on tartaric acid (the compound L221). Tests for acute toxicity were carried out in the group of experimental oncology of the IPKhF of the RAS by intraperitoneal administration of the preparations in water to BDF1 mice. […] The use of these compounds at the minimum doses in combination with the minimum doses of cytostatics (when neither of the preparations taken alone provides a therapeutic effect) makes complete inhibition of the metastasis process in experimental B-16 melanoma or Lewis lung carcinoma possible. Furthermore, the use of dicarbonic acid oxyamides as agents for enhancing the anti-tumor effect makes it possible in a combination with the minimum amounts of oxyamide and a cytostatic (a unit dose of cytostatics being 4 times lower than a therapeutic dose) to enhance the efficacy in the treatment of P-388 leukemia (survival rate of the animals is 100%).

[1] abbreviates: combined administration of FB-13 with cisplatin.
The mark [2] stands for this setting: cisplatin administered alone, s.c. inoculum 5x10^6 cells.

With `NC(=O)C(N)=O.O=C(O)/C=C\C(=O)O` [FB-13, Maleic acid monooxamide], the “number of cured (surviving for 60 days) animals” value in the experiment on Leukemia P388 (combined administration: FB-13 10 mg/kg and cisplatin 2 mg/kg on days 1, 3, 5 and 7) came to 100%. In addition, the “index of metastasis inhibition (IMI) in the lungs” value with Lewis lung carcinoma (setting [1]) and with B-16 melanoma (setting [1]) was 100% each time.
As for `N.N.[Cl][Pt][Cl]` [cisplatin], the “number of cured (surviving for 60 days) animals” value in the experiment on Leukemia P388 (only cisplatin, 2 mg/kg on days 1, 3, 5 and 7 post transplantation, i.p. inoculum 10^6 cells) turned out to be 66.7%. Moreover, the results for the “index of metastasis inhibition (IMI) in the lungs” value with Lewis lung carcinoma (setting [2]) and in the experiment with B-16 melanoma (setting [2]) were 50% and 52%, respectively.
